Test results: PMC11007962, “First-in-human study of GFH018, a small molecule inhibitor of transforming growth factor-β receptor I inhibitor, in patients with advanced solid tumors” (BMC Cancer, 2024)

Test system: patients with advanced solid tumors
Conditions: 85 mg BID 7d-on/7d-off (N = 6)
Procedure: The study consisted of a dose-escalation part followed by an expansion part. In the dose escalation part, a 3-day pharmacokinetic (PK) lead-in period was conducted for a single dose in the first treatment cycle. Patients received GFH018 once on cycle 1 day 1 (C1D1) and underwent serial PK testing over the first 3 days. On C1D4, patients were administered the corresponding dose of GFH018 BID 14 days on/14 days off. The first cycle was defined as 31 days, including 3-day PK leading-in period with GFH018 single dosing and then 14d-on/14d-off dosing schedule. The subsequent cycles were 28 days. The starting dose of GFH018 was 5 mg, with eight planned dose levels up to 85 mg (5, 10, 20, 30, 40, 50, 65, and 85 mg). A modified 3+3 design was used to determine the maximum tolerance dose (MTD) and RDE, guided by safety/tolerability and PK data. Dose-limiting toxicities (DLTs) were evaluated during the first cycle at each dose level. The safety of 85 mg BID, 7 d-on/7 d-off, was explored after confirming the safety of 14 d-on/14 d-off. The DLTs were defined as hematological toxicities, including G4 neutropenia lasting for more than 5 days, G3 febrile neutropenia, G4 anemia, G4 thrombocytopenia, or G3 thrombocytopenia accompanied by bleeding, and ≥ G3 nonhematological toxicity (except for diarrhea, nausea, vomiting, and rash recovering ≤ G2 after supportive treatment within 3 days). The DLTs for cardiac toxicities included ≥ G2 cardiac valve abnormalities, ≥ G2 left ventricular ejection fraction (LVEF) decrease, any cardiovascular impairment shown in imaging, and abnormal highly sensitive troponin (hs-Tn) increased to ≥ twice the baseline in two consecutive tests with an interval ≥ 3 days. In the expansion part, patients were orally administered GFH018 RDE twice daily to further evaluate the safety of RDE and other dose regimens. […] The treatment cycle lasted 28 days.
All enrolled patients were monitored regularly after GFH018 administration. Safety assessments included adverse events (AEs), serious AEs (SAEs), laboratory assessments, vital signs, physical examinations, electrocardiography and echocardiography. AEs were graded according to the NCI Common Terminology Criteria for Adverse Events (NCI-CTCAE) v5.0. All AEs were followed up until they were stable or had recovered to baseline. Adverse events of special interest (AESIs) were predefined as echocardiographic abnormalities such as aggravated stenosis or regurgitation of the heart valves, clinically significant decreases in LVEF, brain natriuretic peptide (BNP) or N-terminal pro-brain natriuretic peptide (NT-proBNP) increases, and hs-Tn increases judged by investigators.
For the safety and efficacy analyses, data from patients who received GFH018 at the same dose in the dose-escalation and expansion cohorts were pooled. The demographic and baseline characteristics were summarized using descriptive methods. Safety and efficacy data were summarized for all patients who received at least one dose of GFH018. The ORR and DCR were summarized by cohort and overall. When the sample size of the analyzed group was ten or more, the Kaplan–Meier method was used to estimate the median PFS and TTP. In this study, treatment-emergent AEs (TEAEs) were defined as AEs that occurred on or after the first dosing date of GFH018 and no later than 30 days after the last dose of GFH018. The incidence and severity of AEs were descriptively summarized according to dose level. The PK parameters of GFH018 were calculated using noncompartmental analysis methods. All plasma PK data were summarized by cohort and visit day or time using descriptive statistics.

For Cc1cccc(-c2nn3c(c2-c2ccc4ncnn4c2/C=C/C(N)=O)CCC3)n1 [GFH018], the “TEAE: ALT increased, any grade (Table S3)” value was 0 n (%), the “TEAE: ALT increased, maximal CTCAE grade G1” value was 0 n (%) and the “TEAE: ALT increased, maximal CTCAE grade G2” value was 0 n (%). For the same compound, the “TEAE: ALT increased, maximal CTCAE grade G3” value was 0 n (%), the “TEAE: ALT increased, maximal CTCAE grade G4” value was 0 n (%) and the “TEAE: ALT increased, maximal CTCAE grade G5” value was 0 n (%). The “TEAE: AST increased” value was 1 (16.7%) n (%), the “TEAE: AST increased, any grade (Table S3)” value was 1 (16.7%) n (%) and the “TEAE: AST increased, maximal CTCAE grade G1” value was 1 (16.7%) n (%). The “TEAE: AST increased, maximal CTCAE grade G2” value was 0 n (%), the “TEAE: AST increased, maximal CTCAE grade G3” value was 0 n (%) and the “TEAE: AST increased, maximal CTCAE grade G4” value was 0 n (%). The “TEAE: AST increased, maximal CTCAE grade G5” value was 0 n (%), the “TEAE: Abdominal distention” value was 1 (16.7%) n (%) and the “TEAE: Abdominal pain” value was 2 (33.3%) n (%). For the same compound, the “TEAE: Anemia” value was 2 (33.3%) n (%), the “TEAE: Asthenia” value was 1 (16.7%) n (%) and the “TEAE: Bilirubin conjugated increased” value was 1 (16.7%) n (%). For the same compound, the “TEAE: Blood albumin decreased” value was 1 (16.7%) n (%), the “TEAE: Blood bilirubin increased” value was 0 n (%) and the “TEAE: C-reactive protein increased” value was 0 n (%). For the same compound, the “TEAE: C-reactive protein increased, any grade (Table S3)” value was 0 n (%), the “TEAE: C-reactive protein increased, maximal CTCAE grade G1” value was 0 n (%) and the “TEAE: C-reactive protein increased, maximal CTCAE grade G2” value was 0 n (%). For the same compound, the “TEAE: C-reactive protein increased, maximal CTCAE grade G3” value was 0 n (%), the “TEAE: C-reactive protein increased, maximal CTCAE grade G4” value was 0 n (%) and the “TEAE: C-reactive protein increased, maximal CTCAE grade G5” value was 0 n (%). The “TEAE: Constipation” value was 0 n (%), the “TEAE: Decreased appetite” value was 2 (33.3%) n (%) and the “TEAE: Decreased appetite, any grade (Table S3)” value was 2 (33.3%) n (%). For the same compound, the “TEAE: Decreased appetite, maximal CTCAE grade G1” value was 1 (16.7%) n (%), the “TEAE: Decreased appetite, maximal CTCAE grade G2” value was 1 (16.7%) n (%) and the “TEAE: Decreased appetite, maximal CTCAE grade G3” value was 0 n (%). For the same compound, the “TEAE: Decreased appetite, maximal CTCAE grade G4” value was 0 n (%), the “TEAE: Decreased appetite, maximal CTCAE grade G5” value was 0 n (%) and the “TEAE: GGT increased” value was 0 n (%). For the same compound, the “TEAE: GGT increased, any grade (Table S3)” value was 0 n (%), the “TEAE: GGT increased, maximal CTCAE grade G1” value was 0 n (%) and the “TEAE: GGT increased, maximal CTCAE grade G2” value was 0 n (%). For the same compound, the “TEAE: GGT increased, maximal CTCAE grade G3” value was 0 n (%), the “TEAE: GGT increased, maximal CTCAE grade G4” value was 0 n (%) and the “TEAE: GGT increased, maximal CTCAE grade G5” value was 0 n (%). For the same compound, the “TEAE: Hypoalbuminemia” value was 1 (16.7%) n (%), the “TEAE: LDH increased” value was 0 n (%) and the “TEAE: LDH increased, any grade (Table S3)” value was 0 n (%). For the same compound, the “TEAE: LDH increased, maximal CTCAE grade G1” value was 0 n (%), the “TEAE: LDH increased, maximal CTCAE grade G2” value was 0 n (%) and the “TEAE: LDH increased, maximal CTCAE grade G3” value was 0 n (%). For the same compound, the “TEAE: LDH increased, maximal CTCAE grade G4” value was 0 n (%), the “TEAE: LDH increased, maximal CTCAE grade G5” value was 0 n (%) and the “TEAE: Lymphocyte count decreased” value was 3 (50.0%) n (%). The “TEAE: Platelet count decreased” value was 1 (16.7%) n (%), the “TEAE: Proteinuria” value was 1 (16.7%) n (%) and the “TEAE: Sinus tachycardia” value was 2 (33.3%) n (%). The “TEAE: Urine protein present” value was 1 (16.7%) n (%), the “TEAE: White blood cell count decreased” value was 1 (16.7%) n (%) and the “TEAE: White blood cells urine positive” value was 0 n (%). The “TEAE: White blood cells urine positive, any grade (Table S3)” value was 0 n (%), the “TEAE: White blood cells urine positive, maximal CTCAE grade G1” value was 0 n (%) and the “TEAE: White blood cells urine positive, maximal CTCAE grade G2” value was 0 n (%). For the same compound, the “TEAE: White blood cells urine positive, maximal CTCAE grade G3” value was 0 n (%), the “TEAE: White blood cells urine positive, maximal CTCAE grade G4” value was 0 n (%) and the “TEAE: White blood cells urine positive, maximal CTCAE grade G5” value was 0 n (%). For the same compound, the “TRAE: ALP increased” value was 1 (16.7%) n (%), the “TRAE: ALT increased” value was 0 n (%) and the “TRAE: AST increased” value was 0 n (%). The “TRAE: Anemia” value was 1 (16.7%) n (%) and the “TRAE: GGT increased” value was 0 n (%).
